# Patent US20220185744A1, “FERTILISING COMPOSITION WHICH INCLUDES A PLANT-ASSIMILABLE PHOSPHORUS AND CALCIUM POTENTIATOR AND USE THEREOF” (priority 2019, published 2022)
# System: maize plants
# Experiment: Pot trial: single root-exudate metabolites applied to soil, dry biomass of maize plants at 6 weeks
# Format: in vivo
# Settings: 1 kg/ha, pot trial
# Text: These metabolites were: gluconic acid, glyceric acid, lactic acid, glucose, threonic acid, fructose, aspartic acid, serine, glycerol, arabinose and glutamine. […] The effect of the metabolites was compared with a negative control (no treatment) and a positive control with a conventional phosphate fertiliser (triple superphosphate at a dose of 100 phosphorus fertiliser units —P2O5— per hectare). […] This level of assimilable phosphorus corresponds to 4.5 kg of P2O5 per hectare (considering 30 centimetres of arable soil and an average density of 1,300 kg/m^3, the mass per hectare would be approximately 3,900 tonnes).
row,Structure (SMILES),Growth enhancement in maize (in words)
1,"O=C(O)C(O)CO (centres unmarked) [Glyceric acid, 2,3-dihydroxypropanoic acid]",the most growth-enhancing metabolite in maize

# Same assay, conditions: metabolite 1 kg/ha in pot with 3 kg soil (assimilable P 0.5 ppm), triple superphosphate 100 P2O5 units/ha
row,Structure (SMILES),"Dry biomass of maize plants at 6 weeks of growth, dry weight [g]"
1,O=C[C@@H](O)[C@H](O)[C@H](O)CO [Arabinose],1.26
2,N[C@@H](CC(=O)O)C(=O)O [Aspartic acid],1.16
3,O=C(CO)[C@@H](O)[C@H](O)[C@H](O)CO [Fructose],1.38
4,O=C(O)[C@H](O)[C@@H](O)[C@H](O)[C@H](O)CO [Gluconic acid],1.77
5,NC(=O)CC[C@H](N)C(=O)O [Glutamine],1.55
6,"O=C(O)C(O)CO (centres unmarked) [Glyceric acid, 2,3-dihydroxypropanoic acid]",1.93
7,OCC(O)CO [Glycerol],1.30
8,CC(O)C(=O)O (centres unmarked) [Lactic acid],1.73
9,N[C@@H](CO)C(=O)O [Serine],1.31
10,O=C(O)[C@@H](O)[C@H](O)CO [Threonic acid],1.14
